Converted amounts (≈) assume the structure as drawn.
What was measured:
[1] = test system: Raw 264.7 cells infected with H37Rv-GFP; assay: microbe, parasite or virus in culture; assay type: cell-based, M. tuberculosis; conditions: Mycobacterium tuberculosis, H37RV, 120 h; read-out: QIM (MIC50)
[2] = test system: M. tuberculosis H37Rv expressing the green fluorescent protein (H37Rv-GFP); assay: microbe, parasite or virus in culture; assay type: cell-based; conditions: Mycobacterium tuberculosis, H37RV, 120 h; read-out: QUM (MIC50)

| Compound | MIC50 [1] [µM] | melting point [°C] | MIC50 [2] [µM] |
| --- | --- | --- | --- |
| COc1ccc(NC(=O)c2cc3sc(C(C)C)nc3s2)cc1 [Compound 115] | < 1 | 149 | 1 to 20 (≈ 0.332 to 6.65 µg/mL) |
| Cn1cc2ccc(NC(=O)c3cc4sc(N5CCOCC5)nc4s3)cc2n1 [Compound 132] | < 1 | 313.7 | > 20 |
| COc1ccc(NC(=O)c2ccc3nc(N4CCCCC4)ccc3c2)cc1 [Compound 17] | > 20 | 209 | 1 to 20 (≈ 0.361 to 7.23 µg/mL) |
| COc1ncc(NC(=O)c2cc3sc(N4CCCCC4)nc3s2)cn1 [Compound 55] | < 1 | 219 | > 20 |
| COc1ccc(NC(=O)c2cc3sc(NC4CCCC4)nc3s2)cc1 [Compound 90] | < 1 | 239.3 | < 1 |
| O=C(c1cc2nc(N3CCCCC3)sc2s1)N1CCOCC1 [Compound 26] | > 20 | 188 | > 20 |
| Cc1nnc(-c2ccc(NC(=O)c3cc4sc(N5CCC(O)CC5)nc4s3)cc2)o1 [Compound 123] | > 20 | 334.4 | > 20 |
| Cc1nc2cc(NC(=O)c3cc4sc(N5CCOCC5C(=O)N(C)C)nc4s3)ccc2o1 (stereo not drawn) [Compound 175] | > 20 | 288.6 | > 20 |
| COc1ccc(NC(=O)c2cc3ncsc3s2)cc1 [Compound 21] | > 20 | 236 | > 20 |
| CN(C)C(=O)C1CCN(c2nc3sc(C(=O)Nc4ccc5oc(CCc6ccc(F)cc6)nc5c4)cc3s2)CC1 [Compound 197] | < 1 | 259 | > 20 |
| COC(=O)C1CCN(C(=O)c2cc3sc(N4CCCCC4)nc3s2)CC1 [Compound 56] | 1 to 20 (≈ 0.394 to 7.87 µg/mL) | 136 | 1 to 20 (≈ 0.394 to 7.87 µg/mL) |
| CC(C)(C)OC(=O)n1ncc2cc(NC(=O)c3cc4sc(N5CCOCC5)nc4s3)ccc21 [Compound 88] | > 20 | 331.7 | > 20 |
| COc1ccc(NC(=O)c2cc3sc(N4CCC(F)(F)CC4)nc3s2)cc1 [Compound 72] | < 1 | 263.5 | 1 to 20 (≈ 0.409 to 8.19 µg/mL) |
| Cc1nc2cc(NC(=O)c3cc4sc(N5CCC(COc6ccc(Cl)cc6)CC5)nc4s3)ccc2o1 [Compound 195] | < 1 | 256 | > 20 |
| COc1ccc(NC(=O)c2cc3sc(N4CC5CC4CN5C(=O)OC(C)(C)C)nc3s2)cc1 (stereo not drawn) [Compound 93] | > 20 | 249 | > 20 |
| COc1ccc(CNC(=O)c2cc3nc(N4CCCCC4)sc3s2)cc1 [Compound 7] | > 20 | 179 | > 20 |

| Compound | MIC50 [1] [µM] | melting point [°C] | MIC50 [2] [µM] |
| --- | --- | --- | --- |
| Cc1nc2cc(NC(=O)c3cc4sc(N5CCOC(C(=O)N(C)C)C5)nc4s3)ccc2o1 (stereo not drawn) [Compound 169] | 1 to 20 (≈ 0.472 to 9.43 µg/mL) | 247.5 | 1 to 20 (≈ 0.472 to 9.43 µg/mL) |
| Cn1cnc2ccc(NC(=O)c3cc4sc(N5CCOCC5)nc4s3)cc21 [Compound 117] | > 20 | 314 | > 20 |
| COc1ccc(NC(=O)c2cc3sc(N4CCC(Oc5ccccc5)CC4)nc3s2)cc1 [Compound 106] | < 1 | 225 | > 20 |
| Cc1nc2cc(NC(=O)c3cc4sc(N5CCOC(c6ccccc6)C5)nc4s3)ccc2o1 (stereo not drawn) [Compound 174] | < 1 | 223.5 | 1 to 20 (≈ 0.477 to 9.53 µg/mL) |
| Cc1nc2cc(NC(=O)c3sc4nc(N5CCOCC5)sc4c3C)ccc2o1 [Compound 163] | > 20 | 226 | > 20 |
| Cc1ccc(-c2ccc(NC(=O)c3cc4sc(N5CCOCC5)nc4s3)cc2)cn1 [Compound 161] | < 1 | 292 | > 20 |
| O=C(Nc1ccc(Oc2ccc(Cl)cc2)cc1)c1cc2sc(N3CCOCC3)nc2s1 [Compound 146] | < 1 | 225 | 1 to 20 (≈ 0.472 to 9.44 µg/mL) |
| O=C(Nc1ccc(OCc2ccccc2)cc1)c1cc2nc(N3CCCCC3)sc2s1 [Compound 11] | > 20 | 223 | > 20 |
| O=C(Nc1ccc(Oc2ccccc2)cc1)c1cc2nc(N3CCCCC3)sc2s1 [Compound 15] | > 20 | 225.8 | > 20 |
| Cc1nc2cc(NC(=O)N3CCc4sc(N5CCOCC5)cc4C3)ccc2o1 [Compound 191] | > 20 | 171.7 | > 20 |
| COc1cc(NC(=O)c2cc3nc(N4CCCCC4)sc3s2)cc(OC)c1 [Compound 4] | > 20 | 231.2 | > 20 |
| Cc1nc2cc(NC(=O)c3cc4sc(N5CCC(O)CC5)nc4s3)ccc2o1 [Compound 122] | < 1 | 238.5 | < 1 |
| Cc1nc2cc(NC(=O)c3cc4sc(N5CCC(CO)CC5)nc4s3)ccc2o1 [Compound 144] | < 1 | 196.4 | < 1 |
| Cc1nc2cc(NC(=O)c3cc4sc(N5CCC(C(=O)NCc6ccccc6)CC5)nc4s3)ccc2o1 [Compound 186] | < 1 | 264.9 | > 20 |
| CCc1ccc(NC(=O)c2cc3sc(N4CCCCC4)nc3s2)cc1 [Compound 38] | < 1 | 198 | 1 to 20 (≈ 0.372 to 7.43 µg/mL) |

Source: US11279714B2, “Anti-infective compounds” (priority 2014, dated 2022)
